{"source": "patent US11938129B2", "about": "“Methods and compositions for the treatment of vascular disease” (THE GENERAL HOSPITAL CORPORATION, priority 2018, dated 2024)", "key": {"MMP2 and MMP9 activity": {"tested_on": "MMP2 and MMP9 activity", "test": "in vivo MMP activity (MMPSense 750 FAST) after carotid ligation", "design": "species or system mouse", "details": "24 h post injection, ligated mice", "description": "Mice were tail vein injected with 600 uL of MMPSense 750 FAST, a near-infrared fluorescence sensor for MMP2 and MMP9 activity, (PerkinElmer, USA). Mice were sacrificed 24 h post injection and aortas were dissected and analyzed using a Kodak image station 4000MM Pro for macroscopic fluorescence reflectance molecular imaging.\n(§1) Cohorts of 10-week-old wild-type mice were treated with oral administration in drinking water of GSK343 24 hrs before left carotid ligation and following treatment for 3 weeks. GSK343 inhibitor (25 mg) was dissolved in 1 mL of DMSO to obtain a stock solution of 46 mM. Then, 250 ml of drinking water was supplemented with 250 pl of GSK343 stock solution. Control group for was given with equal volumes of sterile water. Bottles containing GSK343 were replaced with fresh water supplied with drug every 3 days. For Malatl antisense LNA treatments, cohorts of 10-week-old wild-type mice were injected with 15 nmol in saline solution 24 hrs before left carotid ligation following by a second injection 7 days post-ligation."}, "H3K27me3": {"tested_on": "H3K27me3", "test": "H3K27me3 staining in aortas of treated Fbn1C1039G/+ mice", "format": "in vivo, mouse", "details": "compared to control or losartan treated mice", "description": "Latex was injected into the left ventricular apex under low pressure until it was visible in the femoral artery. Animals were then fixed in Formalin (10%) for 24 hours before transfer to 70% ethanol for dissection and storage. Aortas were then removed from the animals or dissected in situ for photography prior to paraffinization and sectioning (10 pM). Slides were produced for tissue staining or stained with standard stains including H&E staining, collagen deposition (Trichrome Stain (Masson) Kit, Sigma, USA), elastin (Verhoeff-Van Gieson, Thermo Scientific, MI, USA) or F-actin (ActinGreen™ 488 ReadyProbes, ThermoFisher Scientific, USA) for quantitative analysis. Elastin integrity score was rated by blinded observers and graded on an arbitrary scale of 5 (indicating high quality elastic fiber) to 1 (indicating severe elastin fragmentation). For nuclear staining aortas from human and mice were cryosectioned using OCT standard protocol as described previously (Fischer et al., 2008). Cohorts of 8-week-old wild-type or Fbn1cw3gGi+ mice were treated with oral administration in drinking water of either Losartan or GSK343 for 20 weeks (FIG. 5). […] Then 200 mL of drinking water was supplemented with 250 pL of GSK343 stock solution. […] Aortic dimensions were monitored monthly by echocardiograms as mentioned above."}, "VSMCs": {"tested_on": "VSMCs", "test": "cytoskeletal architecture of VSMCs treated with GSK343", "format": "cell-based, mouse", "description": "Primary human aortic smooth muscle cells (HAoSMC) from healthy donors were purchased from Cell Applications Inc., California, USA (Cat. #354K-05a). Primary aneurysm aortic SMCs were isolated from fresh TAA tissue at the moment of surgery by standard explant of the aortic media. Mouse aortic SMCs were isolated by standard explant of the ascending section of the aortas from wild-type or Fbn1ci°39G1+ mice. Smooth muscle cell identity was assessed by immunofluorescence staining of contractile markers including SM22a, Calponin, Smoothelin and Vinculin. In order to preserve cell identity all experiments were carried out at passages 1-5 (Timraz et al., 2016). Human and murine SMCs were grown with smooth muscle cell growth medium from Cell Applications Inc. (Cat. #311-500). […] Fresh media containing GSK343 was supplied daily. For GSK343/TGF81 (10 ng/mL) combo treatment, cells were first treated with complete media containing GSK343 at concentration of 10 nM during the 2 first days followed by GSK343/TGFβ combination treatment the next 2 days. Prior to cellular collection cells were washed with sterile PBS and RNA or protein extraction were performed as described above."}, "[1]": {"tested_on": "neointimal formation in ligated carotid", "test": "murine carotid artery ligation model: neointimal formation and stenosis (histology)", "format": "in vivo, mouse", "details": "wild-type mice, left carotid ligation, 21 days; GSK343 in drinking water from 24 hrs before ligation for 3 weeks; GapmeR 15 nmol 24 hrs before and 7 days post-ligation", "description": "All mice used in this study were cared for under strict compliance with the Partners Institutional Animal Care and Use Committee (IACUC), regulated by the United States Public Health Service (USPHS). Carotid ligations were performed in 10 week old mice. Briefly, animals were anesthetized using intraperitoneal ketamine/xylazine (80 and 12 mg/kg, respectively) followed by a small incision in the neck to expose the carotid artery. Then the left carotid was ligated at the carotid bifurcation level using a 8-0 silk suture. At 21 days mice were sacrificed and carotids were collected for histological analysis. Approximately 98% of wild type mice developed stenotic lesions. Mice that developed thrombosis of the ligated carotid were excluded from the study (−1¬2%). Malatl knockout mice were kindly provided by Dr. David Spector (Cold Spring Harbor, N.Y.). Hdac9 flox/flox/Talgn-cre mice were generated as previously reported (10). […]\nLeft and right carotids were cryosectioned using OCT standard protocol and sectioning. […] Slides 1, 5, 10, and 15 were H&E stained for quantification of neointima. For quantification of the neointima, internal and external elastic lamina perimeters and medial thickness from 4 quadrants were measured and averaged using Image J software from the National Institutes of Health (NIH). […]"}, "a-SMA and SM22a": {"tested_on": "a-SMA and SM22a", "test": "immunofluorescence of contractile proteins in ligated carotids", "format": "in vivo, mouse", "description": "All mice used in this study were cared for under strict compliance with the Partners Institutional Animal Care and Use Committee (IACUC), regulated by the United States Public Health Service (USPHS). Carotid ligations were performed in 10 week old mice. Briefly, animals were anesthetized using intraperitoneal ketamine/xylazine (80 and 12 mg/kg, respectively) followed by a small incision in the neck to expose the carotid artery. Then the left carotid was ligated at the carotid bifurcation level using a 8-0 silk suture. At 21 days mice were sacrificed and carotids were collected for histological analysis. Approximately 98% of wild type mice developed stenotic lesions. Mice that developed thrombosis of the ligated carotid were excluded from the study (−1¬2%). Malatl knockout mice were kindly provided by Dr. David Spector (Cold Spring Harbor, N.Y.). Hdac9 flox/flox/Talgn-cre mice were generated as previously reported (10). Ezh2 fl/fl/ (STOCK Ezh2tm2Sho/J) and Myh11-cre-GFP (B6.Cg-Tg(Myh11-cre,-EGFP)2Mik/J) were crossed to generate smooth muscle cell-Ezh2 deficient mice. All above mice and wild-type mice (C57BL/6J) were purchased from Jackson laboratory. For tissue analysis, animals were euthanized through inhalational isoflurane (Sigma, St, Louis, Mo.) prior to tissue collection. All carotid ligation (left carotid) procedures were performed at 10 weeks of age. All experiments were performed on male and female animals at a 1:1 ratio.\nLeft and right carotids were cryosectioned using OCT standard protocol and sectioning. The right carotid artery was unligated and served as an internal control. Neoinitima analysis was performed from hematoxylin and eosin (H & E) stained horizontal cross-sections embedded in Optimal Cutting Temperature compound (OCT). Briefly, the distal 0.2 mm of carotid from the ligation suture site were discarded followed by generation of 20 slides (10 pM). Slides 1, 5, 10, and 15 were H&E stained for quantification of neointima. For quantification of the neointima, internal and external elastic lamina perimeters and medial thickness from 4 quadrants were measured and averaged using Image J software from the National Institutes of Health (NIH). Slides 2-4, 6-9, and 11-14 were used for immunofluorescence staining.\nas §1, with “For Malatl antisense LNA treatments, cohorts of 10-week-old wild-type mice were injected with 15 nmol in saline solution 24 hrs before left carotid ligation following by a second injection 7 days post-ligation.” left out"}}, "note": "“Also recorded” adds a separate entry of the source."}
{"smiles": "CCCc1cc(C)[nH]c(=O)c1CNC(=O)c1cc(-c2ccnc(N3CCN(C)CC3)c2)cc2c1cnn2C(C)C", "note": "[GSK343]", "values": [{"measurement": "activity of MMPs", "setting": "MMP2 and MMP9 activity", "value": "Inhibition of Mmp activity; also recorded: inhibited the activity of MMPs"}, {"measurement": "H3K27me3 staining / aortic medial H3K27me3 modifications", "setting": "H3K27me3", "value": "significant suppression of H3K27me3 staining; also recorded: significantly decreased"}, {"measurement": "cytoskeletal architecture", "setting": "VSMCs", "value": "improved cytoskeletal architecture"}, {"measurement": "extent of the stenotic response / neointimal formation", "setting": "[1]", "value": "significant inhibition of neointimal formation; also recorded: dramatically improved the extent of the stenotic response"}, {"measurement": "expression of α-SMA in carotid VSMCs", "setting": "a-SMA and SM22a; ligated carotid, in contrast to carotid VSMCs in wild type animals", "value": "robust expression"}, {"measurement": "expression of contractile proteins such as a-SMA and SM22a", "setting": "a-SMA and SM22a; ligated carotids of treated mice", "value": "improved the expression of contractile proteins"}]}
